# Source: patent US4275065A, “Modulating the immune response with 2-substituted-3-hydroxythiazolo[2,3-b]b e” (American Home Products Corporation, priority 1980, dated 1981)
# Assays:
# [1] = system: antibody-secreting plaque-forming splenocytes (IgG and IgM); assay: Cunningham modification of the Jerne assay (hemolytic plaque technique), IgM and IgG plaques per spleen; format: in vivo, CDF1 (Balb/c × DBA/2) mice; conditions: 100 mg/kg
# Description: In this example, the compounds of the invention are tested for their effect on antibody-secreting plaque-forming splenocytes (IgG and IgM) in the Cunningham modification of the Jerne assay. This technique is able to detect, in a quantitative manner, antibody producing cells in response to antigen stimulus in the host mouse. For study of […] immune response, sheep erythrocytes (SRBC) are used (as in the present Example), while for humoral immune response, SRBC coupled with pneumococcal polysaccharide is used.
# CDF1 (Balb/c × DBA/2) mice are immunized with 0.1 ml. of 10^8 sheep erythrocytes (SRBC) intraperitonially 4-5 days before the assay. The mice are separated into groups, with one group serving as a control and all other groups receiving compounds of the invention. The treated mice are dosed with drug on day one. […] The spleens of the sacrificed mice are excised and washed several times in RPMI 1640 with 10% fetal bovine serum. 100 λ of spleen cells are mixed with a drop of guinea pig complement, four drops of RPMI 1640 and a drop of 25% SRBC in a microtiter plate well and then pipetted into a Cunningham chamber. On day four, for IgM determinations, the chambers are incubated for 30 minutes at 37° C. Antibody, released by the small proportion of active cells, attaches to the surrounding erythrocytes which are lysed by complement leaving a small plaque up to 0.5 mm. in diameter. Since only cells releasing IgM antibody form plaques directly, a "developing" serum must be added to be able to form and view IgG plaques. Thus fifth or sixth day cultured spleen cells are further treated with rabbit antimouse IgG and then incubated for 45 minutes. Both IgM and IgG plaques are counted under a stereomicroscope.
# In Table 1 are given the IgM and IgG plaque counts per spleen for mice treated with 6-chloro-2-phenylthiazolo[2,3-b]benzothiazol-3(2H)-one mesoionic didehydro derivative and for the controls:
# The assay is repeated using the following compounds of the invention: 2-phenylthiazolo[2,3-b]benzothiazol-3(2H)-one mesoionic didehydro derivative (A), 6-chloro-2-(p-chlorophenyl)-thiazolo[2,3-b]benzothiazol-3(2H)-one mesoionic didehydro derivative (B) and 6-chloro-2-phenylthiazolo[2,3-b]benzothiazol-3(2H)-one mesoionic didehydro derivative (C).
# [2] = system: thymus gland; assay: effect on the thymus gland (thymus weight); format: in vivo, BDF1 mice
# Description: The effect of the compounds of the invention on the thymus gland is measured. BDF1 mice of 18-20 gms. weight are dosed at 150 mg/kg. with 6-chloro-2-phenylthiazolo[2,3-b]benzothiazolo-3(2H)-one mesoionic didehydro derivative for eight consecutive days. The mice are sacrificed on the ninth day, the thymus glands excised and weighed. The excised thymus glands averaged […]. as compared to […]. for the control group. […] The weight loss is also correlated to dose, and the results are as follows:
# Using the same technique, the following compounds of the invention were tested: 6-chloro-2-(p-chlorophenyl)thiazolo[2,3-b]benzothiazol-3(2H)-one mesoionic didehydro derivative (A), 2-phenyl-5,6,7,8-tetrahydrothiazolo[2,3-b]benzothiazol-3(2H)-one mesoionic didehydro derivative (B), 2-phenylthiazolo[2,3-b]-benzothiazol-3(2H)-one mesoionic didehydro derivative (C),6-chloro-2-trifluoroacetylthiazolo[2,3-b]benzothiazol-3(2H)-one mesoionic didehydro derivative (D), 6-chloro-3-hydroxy-2-phenylthiazolo[2,3-b]benzothiazolium bromide (E), 7-ethoxy-3-hydroxy-2-phenylthiazolo[2,3-b]benzothiazolium bromide (F), 3-hydroxy-2-phenylthiazolo[2,3-b]benzothiazolium bromide (G), and 3-hydroxy-2-phenyl-5,6,7,8-tetrahydrothiazolo[2,3-b]benzothiazolium bromide (H).
# [3] = system: adjuvant arthritis (left paw edema); assay: adjuvant arthritis test, prophylactic peroral administration; format: in vivo, male Lewis strain rats; conditions: prophylactic p.o.
# [4] = system: established adjuvant arthritis (left paw edema); assay: established adjuvant arthritis, therapeutic peroral administration; format: in vivo, male Lewis strain rats; conditions: therapeutic p.o., * = p < 0.05
# [5] = system: delayed hypersensitivity reaction; assay: guinea pig delayed hypersensitivity assay (PPD); format: in vivo, Male Hartley strain guinea pigs; conditions: 50 mg/kg orally, read 24 hours after challenge, * = p < 0.05
# [6] = system: autoimmune disease (systemic lupus erythematosus); assay: autoimmune disease (systemic lupus erythematosus), immunoglobulin determinations, female NZB/W mice; format: in vivo, female NZB/W F1 mice; conditions: A 100 mg/kg, levamisole 25 mg/kg, i.p. twice weekly
# Description: (§1) The effect of the compounds of the invention on the development and progress of autoimmune disease (systemic lupus erythematosus) in the New Zealand F1 hydrid mouse (NZB×NZW) is evaluated. NZB/W F1 mice are divided into two groups according to sex. […] IgG, IgM and antinuclear antibody determinations are made on pooled samples of serum obtained by capillary bleedings of the suborbital sinus at approximately monthly intervals. The compounds of the invention are suspended in a solution of physiological saline with 0.16% CMC. All dosing is twice weekly intraperitonially. […] Immunoglobulin values from serum samples are compared with the baseline (pretreatment) for each group.
# [7] = system: autoimmune disease (systemic lupus erythematosus); assay: autoimmune disease (systemic lupus erythematosus), immunoglobulin determinations, male NZB/W mice; format: in vivo, male NZB/W F1 mice; conditions: A 100 mg/kg, levamisole 25 mg/kg, i.p. twice weekly
# Description: as §1
# [8] = system: murine Lewis lung carcinoma; assay: metastatic spread of murine Lewis lung carcinoma implanted subcutaneously; format: in vivo
# Description: The ability of the compounds of the invention to influence the growth and metastatic spread of murine Lewis lung carcinoma implanted subcutaneously,is evaluated.
# The procedures employed for stock tumor maintenance and transfer, as well as for drug evaluation on the primary tumor, are those found in Cancer Chemotherapy Reports, Vol. 3, No. 2, September 1972, Protocol 1.400. The measurements of metastic spread are made by counting tumor foci on the excised lung under an illuminated magnifying lens or a dissecting microscope, after employment of the Wexler india ink technique (Hilda Wexler, "Accurate Identification of Experimental Pulmonary Metastases", J. Nat. Can. Inst., Volume 36, No. 4, April 1966, pp. 641-643) to accurately identify and count lung metasteses.
# [9] = 150 mg/kg, eight days, in words
compound,measurement,setting,value
"[O-]c1c(-c2ccccc2)sc2sc3ccc(Cl)cc3[n+]12 [Example 3, 6-Chloro-2-phenylthiazolo[2,3-b]benzothiazol-3(2H)-one mesoionic didehydro derivative]","IgG plaques, mean (total number of plaques per spleen)",[1]; Day 4,"37,087 plaques per spleen"
same,"IgM plaques, mean (total number of plaques per spleen)",[1]; Day 4,"63,993 plaques per spleen"
same,"IgG plaques, mean (total number of plaques per spleen)",[1]; Day 6,"152,745 plaques per spleen"
same,"IgM plaques, mean (total number of plaques per spleen)",[1]; Day 6,"39,679 plaques per spleen"
same,Thymus weight,[2]; 12.5 mg/kg,55.3 mg
same,Thymus weight,[2]; 50 mg/kg,46 mg
same,Thymus weight,[2]; 100 mg/kg,11.8 mg
same,Thymus weight,"[2]; 150 mg/kg, eight consecutive days, ninth day",21.8 mg
same,Histopathological examination of the treated thymus glands,[2]; [9],weight loss to be due solely to the depletion of lymphocytes
same,"size of the cervical, axillary, trachial and inguinal lymph nodes",[2]; [9],some reduction in the size
same,Thymus weight,[2]; 200 mg/kg,20.5 mg
same,recovery of thymus weight and histopathological status,"[2]; after resting for three weeks, in words",return to normal weight and histopathological status
same,Mean % Inhibition of Left Paw Edema,[3]; 10 mg/kg,32%
same,Mean % Inhibition of Left Paw Edema,"[3]; 25 mg/kg, * = p < 0.05?",41%
same,Mean % Inhibition of Left Paw Edema,"[3]; 50 mg/kg, * = p < 0.05?",63%
same,Mean % Inhibition of Left Paw Edema,"[4]; 4th day of dosing, 12.5 mg/kg",94%
same,Mean % Inhibition of Left Paw Edema,"[4]; 4th day of dosing, 50 mg/kg",67%
same,Mean % Inhibition of Left Paw Edema,"[4]; 7th day of dosing, 12.5 mg/kg",66%
same,Mean % Inhibition of Left Paw Edema,"[4]; 7th day of dosing, 50 mg/kg",58%
same,Mean % Inhibition of Paw Edema,[5]; 6 hours after challenge,41%
same,Mean % Inhibition of Paw Edema,[5]; 24 hours before challenge,43%
same,"ANA (antinuclear antibody), Highest Dilution Positive",[6]; 47 Days,neg.
same,IgG level,[6]; 47 Days,234 mg./100 ml.
same,IgM level,[6]; 47 Days,49 mg./100 ml.
same,"ANA (antinuclear antibody), Highest Dilution Positive",[6]; 76 Days,neg.
same,IgG level,[6]; 76 Days,220 mg./100 ml.
same,IgM level,[6]; 76 Days,54 mg./100 ml.
same,"ANA (antinuclear antibody), Highest Dilution Positive",[6]; 111 Days,neg.
same,IgG level,[6]; 111 Days,496 mg./100 ml.
same,IgM level,[6]; 111 Days,148 mg./100 ml.
same,"ANA (antinuclear antibody), Highest Dilution Positive",[6]; 154 Days,neg.
same,IgG level,[6]; 154 Days,420 mg./100 ml.
same,IgM level,[6]; 154 Days,108 mg./100 ml.
same,IgG Total Change From Baseline,[6],-40 mg./100 ml.
same,IgM Total Change From Baseline,[6],+44 mg./100 ml.
same,IgG level,[6]; Pretreatment,460 mg./100 ml.
same,IgM level,[6]; Pretreatment,64 mg./100 ml.
same,"ANA (antinuclear antibody), Highest Dilution Positive",[7]; 47 Days,neg.
same,IgG level,[7]; 47 Days,234 mg./100 ml.
same,IgM level,[7]; 47 Days,48 mg./100 ml.
same,"ANA (antinuclear antibody), Highest Dilution Positive",[7]; 76 Days,neg.
same,IgG level,[7]; 76 Days,240 mg./100 ml.
same,IgM level,[7]; 76 Days,49 mg./100 ml.
same,"ANA (antinuclear antibody), Highest Dilution Positive",[7]; 111 Days,neg.
same,IgG level,[7]; 111 Days,240 mg./100 ml.
same,IgM level,[7]; 111 Days,80 mg./100 ml.
same,"ANA (antinuclear antibody), Highest Dilution Positive",[7]; 154 Days,neg.
same,IgG level,[7]; 154 Days,324 mg./100 ml.
same,IgM level,[7]; 154 Days,96 mg./100 ml.
same,IgG Total Change From Baseline,[7],-126 mg./100 ml.
same,IgM Total Change From Baseline,[7],+52.5 mg./100 ml.
same,IgG level,[7]; Pretreatment,450 mg./100 ml.
same,IgM level,[7]; Pretreatment,43.5 mg./100 ml.
same,Average Number of Metastases,[8]; 25 mg/kg,10.8
same,Average Number of Metastases,[8]; 50 mg/kg,15.3
same,Average Number of Metastases,[8]; 100 mg/kg,38.4
same,Average Number of Metastases,[8]; 150 mg/kg,81.3
same,Average Number of Metastases,[8]; 300 mg/kg,99.1
